Source: patent US7947673B2, “Method of scintigraphy” (Novartis AG, priority 2005, dated 2011)

How the values were obtained:
[1] = Determination of the affinity constant for gallium by potentiometric measurements; assay type: physicochemical; settings: ionic strength 0.1 M KCl, temperature 25° C., in water
Excerpt: Determination of the affinity constant of 4-[3,5-bis(2-hydroxyphenyl)-[1,2,4]triazol-1-yl]benzoic acid for gallium
(§1) Chem. 2004, pp 4177-4192. Considering the affinity constants of 4-[3,5-bis(2-hydroxyphenyl)-[1,2,4]triazol-1-yl]benzoic acid for other metal ions according to Steinhauser et al., Eur. J. Inorg.

[2] = Ranking of affinity constants for metal ions; assay type: physicochemical; settings: other metal ion constants according to Steinhauser et al., Eur. J. Inorg. Chem. 2004
Excerpt: as §1

O=C(O)c1ccc(-n2nc(-c3ccccc3O)nc2-c2ccccc2O)cc1 [4-[3,5-bis(2-hydroxyphenyl)-[1,2,4]triazol-1-yl]benzoic acid]
affinity constant for Gallium, log β120 [1]: 33.8(1) | ranking according to affinity constants for metal ions [2]: Fe(III) (highest affinity)>Ga(III)>Al(III)>>Cu(II)>>Zn(II)>>Mg(II)>Ca(II)
